The values below come from ChEMBL document CHEMBL3112510, “Optimization, pharmacophore modeling and 3D-QSAR studies of sipholanes as breast cancer migration and proliferation inhibitors” (Eur J Med Chem, 2014).

Structures are written as SMILES.

Assay [1] has as its system MDA-MB-231. As to the kind of experiment: Antiproliferative activity against human MDA-MB-231 cells after 72 hrs by MTT assay. To be noted: MDA-MB-231, 72 h. (Tetrazolium assays rely on reduction of a dye to a coloured formazan, in cell work by metabolically active cells.)
Assay [2] has as its system MDA-MB-231. In words: Antimigratory activity in human MDA-MB-231 cells after 24 hrs by wound healing assay. The conditions noted are these: MDA-MB-231, 24 h.
A further assay has as its system MCF7. In words: cells. To be noted: Homo sapiens, MCF7, 72 h.

In the case of `C[C@H]1C(=O)C[C@@H]2[C@@](C)(O)CC[C@]2(O)C(C)(C)[C@@H]1CC[C@H]1[C@]2(C)CCC(=O)C(C)(C)O[C@H]2CC[C@@]1(C)O`, the IC50 was more than 50 µM in the assay on MDA-MB-231 [1], 38.3 µM in the assay with MDA-MB-231 [2], 38.3 µM with MDA-MB-231 [2] (read-out: pIC50 (converted)) and more than 50 µM in the assay with MCF7.
Consider `CC(C)=CCC[C@@]1(C)C(CC[C@H]2[C@]3(C)CC[C@H](O)C(C)(C)O[C@H]3CC[C@@]2(C)O)=C(C)CC[C@H]1O` [SIPHONELLINOL D], for which the IC50 with MDA-MB-231 [1] was more than 50 µM; in the assay on MDA-MB-231 [2], more than 50 µM; with MDA-MB-231 [2] (read-out: pIC50 (converted)), 67.3 µM; in the assay on MCF7, more than 50 µM.
`CC1=CC[C@H]2[C@H](CC[C@]2(C)O)C(C)(C)[C@@H]1CC[C@H]1[C@]2(C)CC[C@H](OCc3ccccc3)C(C)(C)O[C@H]2CC[C@@]1(C)O`: the IC50 with MDA-MB-231 [1] is 29.1 µM; with MDA-MB-231 [2], 12.2 µM; in the assay on MDA-MB-231 [2] (read-out: pIC50 (converted)), 12.2 µM; in the assay on MCF7 it was more than 50 µM.
As to `CC1=CC[C@H]2[C@@H]1CC=C(C)[C@@H](CC[C@H]1[C@]3(C)CC[C@H](OC(=O)c4ccc(Cl)cc4)C(C)(C)O[C@H]3CC[C@@]1(C)O)C2(C)C`, the IC50 in the assay on MDA-MB-231 [1] turned out to be 12.7 µM; in the assay on MDA-MB-231 [2] it was 5.9 µM; with MCF7, 22 µM.
As for `CC1(C)CC[C@](C)(O)[C@H]2C[C@H](O)[C@]3(C)O[C@]3(CC[C@H]3[C@]4(C)CC[C@H](O)C(C)(C)O[C@H]4CC[C@@]3(C)O)[C@H]21`, the IC50 in the assay on MDA-MB-231 [1] was more than 50 µM; in the assay with MDA-MB-231 [2], more than 50 µM; with MDA-MB-231 [2] (read-out: pIC50 (converted)), 92.9 µM; in the assay on MCF7, more than 50 µM.
As to `CC1=C(CC[C@H]2[C@]3(C)CC[C@H](O)C(C)(C)O[C@H]3CC[C@@]2(C)O)[C@](C)(C/C=C/C(C)(C)O)[C@H](O)CC1`, the IC50 was more than 50 µM with MDA-MB-231 [1], more than 50 µM in the assay with MDA-MB-231 [2], 59 µM in the assay with MDA-MB-231 [2] (read-out: pIC50 (converted)) and 21.8 µM in the assay with MCF7.
As for `CC1(C)O[C@H]2CC[C@@](C)(O)[C@@H](CC[C@@H]3C(C=O)=CC[C@H]4[C@H](CC[C@]4(C)O)C3(C)C)[C@]2(C)CC[C@@H]1O`, the IC50 in the assay with MDA-MB-231 [1] was more than 50 µM; in the assay with MDA-MB-231 [2] it was more than 50 µM; in the assay with MDA-MB-231 [2] (read-out: pIC50 (converted)), 51.2 µM; with MCF7, more than 50 µM.
Regarding `CC1=CC[C@H]2[C@@H]1CC=C(C)[C@@H](CC[C@H]1[C@]3(C)CC[C@H](O)C(C)(C)O[C@H]3CC[C@@]1(C)O)C2(C)C`, the IC50 was more than 50 µM in the assay with MDA-MB-231 [1], 35.3 µM in the assay on MDA-MB-231 [2], 35.3 µM in the assay on MDA-MB-231 [2] (read-out: pIC50 (converted)) and more than 50 µM in the assay with MCF7.
On to `CC1=CC[C@H]2[C@H](CC[C@]2(C)O)C(C)(C)[C@@H]1CC[C@H]1[C@]2(C)CC[C@@H](O)O[C@H]2CC[C@@]1(C)O`, for which the IC50 in the assay with MDA-MB-231 [1] was more than 50 µM; with MDA-MB-231 [2], 48 µM; in the assay on MDA-MB-231 [2] (read-out: pIC50 (converted)), 48 µM; in the assay with MCF7, more than 50 µM.
Consider `CC1=CC[C@H]2[C@@H]1CC=C(C)[C@@H](CC[C@H]1[C@]3(C)CC[C@H](OC(=O)c4ccccc4)C(C)(C)O[C@H]3CC[C@@]1(C)O)C2(C)C`, for which the IC50 in the assay with MDA-MB-231 [1] is 18.4 µM; in the assay with MDA-MB-231 [2], 7.2 µM; in the assay with MDA-MB-231 [2] (read-out: pIC50 (converted)), 7.19 µM; in the assay with MCF7 it was 23.1 µM.
For the compound `CC1=CC[C@H]2[C@H](CC[C@]2(C)O)C(C)(C)[C@@H]1CC[C@H]1[C@]2(C)CC[C@H](OC(=O)NS(=O)(=O)c3ccc(C)cc3)C(C)(C)O[C@H]2CC[C@@]1(C)O`, the results for the IC50 with MDA-MB-231 [1], with MDA-MB-231 [2] and in the assay with MCF7 were 47.1 µM, 18 µM and more than 50 µM, respectively.
For the compound `CC1=CC[C@H]2[C@@H]1CC=C(C)[C@@H](CC[C@H]1[C@]3(C)CC[C@H](OC(=O)c4ccc(C)cc4)C(C)(C)O[C@H]3CC[C@@]1(C)O)C2(C)C`, the IC50 with MDA-MB-231 [1] is 32.7 µM; in the assay on MDA-MB-231 [2], 12.3 µM; in the assay with MDA-MB-231 [2] (read-out: pIC50 (converted)) it was 12.3 µM; in the assay on MCF7 it was more than 50 µM.
